From ChEMBL document CHEMBL4507258 (2021)

How the values were obtained:
[1] = molecular target: Mast/stem cell growth factor receptor Kit (Homo sapiens) (UniProt P10721); settings: Compound concentration 1000.0 nM
[2] = molecular target: Serine/threonine-protein kinase Chk1 (Homo sapiens) (UniProt O14757); settings: Compound concentration 1000.0 nM
[3] = molecular target: Casein kinase I isoform gamma-1 (Homo sapiens) (UniProt Q9HCP0); settings: Compound concentration 1000.0 nM
[4] = test system: Phosphatidylinositol 4,5-bisphosphate 3-kinase catalytic subunit alpha isoform (Homo sapiens), P42336 [E542K]; settings: Compound concentration 1000.0 nM
Chain of Phosphatidylinositol 4,5-bisphosphate 3-kinase catalytic subunit alpha isoform (Homo sapiens), P42336 [E542K] (P42336 whole entry E542K, canonical isoform): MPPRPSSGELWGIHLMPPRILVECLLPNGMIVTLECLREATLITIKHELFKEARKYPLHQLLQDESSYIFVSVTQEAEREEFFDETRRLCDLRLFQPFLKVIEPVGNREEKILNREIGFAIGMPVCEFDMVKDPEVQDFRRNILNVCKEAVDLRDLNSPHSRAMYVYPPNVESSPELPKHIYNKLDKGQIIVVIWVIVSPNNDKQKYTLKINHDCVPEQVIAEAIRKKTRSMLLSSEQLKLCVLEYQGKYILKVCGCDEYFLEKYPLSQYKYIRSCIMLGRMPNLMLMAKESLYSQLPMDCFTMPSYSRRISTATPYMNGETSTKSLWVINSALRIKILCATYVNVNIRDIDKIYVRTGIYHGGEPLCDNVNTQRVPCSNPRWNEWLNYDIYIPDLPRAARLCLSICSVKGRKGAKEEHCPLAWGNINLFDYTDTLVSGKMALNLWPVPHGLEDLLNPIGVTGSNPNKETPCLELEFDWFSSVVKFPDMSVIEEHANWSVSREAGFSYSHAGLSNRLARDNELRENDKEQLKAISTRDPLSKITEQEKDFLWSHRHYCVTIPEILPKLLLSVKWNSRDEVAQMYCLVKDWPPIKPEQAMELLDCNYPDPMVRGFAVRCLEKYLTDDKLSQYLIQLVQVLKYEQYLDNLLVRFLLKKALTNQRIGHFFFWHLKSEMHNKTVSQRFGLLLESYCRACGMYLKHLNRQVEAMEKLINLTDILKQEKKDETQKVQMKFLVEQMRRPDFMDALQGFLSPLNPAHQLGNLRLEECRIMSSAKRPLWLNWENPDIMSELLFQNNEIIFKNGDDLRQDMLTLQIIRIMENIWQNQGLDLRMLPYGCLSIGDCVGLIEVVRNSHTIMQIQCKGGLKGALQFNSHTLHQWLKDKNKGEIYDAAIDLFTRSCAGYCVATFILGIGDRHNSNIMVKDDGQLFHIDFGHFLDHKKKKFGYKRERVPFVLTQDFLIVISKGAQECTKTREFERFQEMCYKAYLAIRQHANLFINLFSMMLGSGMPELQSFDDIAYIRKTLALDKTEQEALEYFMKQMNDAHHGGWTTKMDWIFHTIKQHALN

[5] = molecular target: Serine/threonine-protein kinase SIK3 (Homo sapiens) (UniProt Q9Y2K2); settings: Compound concentration 1000.0 nM
[6] = molecular target: Serine/threonine-protein kinase 35 (Homo sapiens) (UniProt Q8TDR2); settings: Compound concentration 1000.0 nM
[7] = molecular target: Cyclin-G-associated kinase (Homo sapiens) (UniProt O14976); settings: Compound concentration 1000.0 nM
[8] = molecular target: Sodium-dependent serotonin transporter (Homo sapiens) (UniProt P31645); settings: Compound concentration 10.0 uM
[9] = molecular target: Tyrosine-protein kinase Srms (Homo sapiens) (UniProt Q9H3Y6); settings: Compound concentration 1000.0 nM
[10] = molecular target: Serine/threonine-protein kinase MARK2 (Homo sapiens) (UniProt Q7KZI7); settings: Compound concentration 1000.0 nM
[11] = molecular target: Membrane-associated tyrosine- and threonine-specific cdc2-inhibitory kinase (Homo sapiens) (UniProt Q99640); settings: Compound concentration 1000.0 nM
Chain of Membrane-associated tyrosine- and threonine-specific cdc2-inhibitory kinase (Homo sapiens) (Q99640 whole entry): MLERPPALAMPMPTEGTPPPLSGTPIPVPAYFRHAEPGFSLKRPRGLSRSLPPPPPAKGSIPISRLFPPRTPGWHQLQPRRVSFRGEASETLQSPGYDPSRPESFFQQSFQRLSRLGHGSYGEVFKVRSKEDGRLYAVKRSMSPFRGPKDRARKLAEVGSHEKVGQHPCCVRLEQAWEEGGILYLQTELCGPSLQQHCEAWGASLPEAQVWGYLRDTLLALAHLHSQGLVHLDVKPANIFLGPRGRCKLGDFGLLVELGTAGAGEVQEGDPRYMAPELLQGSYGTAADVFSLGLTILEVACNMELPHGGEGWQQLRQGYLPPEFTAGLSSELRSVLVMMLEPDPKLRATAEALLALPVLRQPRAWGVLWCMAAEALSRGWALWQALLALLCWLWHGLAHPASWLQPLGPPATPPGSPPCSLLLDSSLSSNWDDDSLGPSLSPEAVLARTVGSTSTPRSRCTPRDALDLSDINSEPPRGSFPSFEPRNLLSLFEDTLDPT

[12] = test system: Mast/stem cell growth factor receptor Kit (Homo sapiens), P10721 [V559D]; settings: Compound concentration 1000.0 nM
[13] = molecular target: Serine/threonine-protein kinase tousled-like 2 (Homo sapiens) (UniProt Q86UE8); settings: Compound concentration 1000.0 nM
[14] = test system: Epidermal growth factor receptor (Homo sapiens), P00533 [G719S]; settings: Compound concentration 1000.0 nM
[15] = molecular target: Phosphatidylinositol 3-kinase catalytic subunit type 3 (Homo sapiens) (UniProt Q8NEB9); settings: Compound concentration 1000.0 nM
[16] = molecular target: Casein kinase I isoform gamma-2 (Homo sapiens) (UniProt P78368); settings: Compound concentration 1000.0 nM
[17] = molecular target: Sodium-dependent dopamine transporter (Homo sapiens) (UniProt Q01959); settings: Compound concentration 10.0 uM
[18] = molecular target: AP2-associated protein kinase 1 (Homo sapiens) (UniProt Q2M2I8); settings: Compound concentration 1000.0 nM
Chain of AP2-associated protein kinase 1 (Homo sapiens) (Q2M2I8 whole entry, looked up): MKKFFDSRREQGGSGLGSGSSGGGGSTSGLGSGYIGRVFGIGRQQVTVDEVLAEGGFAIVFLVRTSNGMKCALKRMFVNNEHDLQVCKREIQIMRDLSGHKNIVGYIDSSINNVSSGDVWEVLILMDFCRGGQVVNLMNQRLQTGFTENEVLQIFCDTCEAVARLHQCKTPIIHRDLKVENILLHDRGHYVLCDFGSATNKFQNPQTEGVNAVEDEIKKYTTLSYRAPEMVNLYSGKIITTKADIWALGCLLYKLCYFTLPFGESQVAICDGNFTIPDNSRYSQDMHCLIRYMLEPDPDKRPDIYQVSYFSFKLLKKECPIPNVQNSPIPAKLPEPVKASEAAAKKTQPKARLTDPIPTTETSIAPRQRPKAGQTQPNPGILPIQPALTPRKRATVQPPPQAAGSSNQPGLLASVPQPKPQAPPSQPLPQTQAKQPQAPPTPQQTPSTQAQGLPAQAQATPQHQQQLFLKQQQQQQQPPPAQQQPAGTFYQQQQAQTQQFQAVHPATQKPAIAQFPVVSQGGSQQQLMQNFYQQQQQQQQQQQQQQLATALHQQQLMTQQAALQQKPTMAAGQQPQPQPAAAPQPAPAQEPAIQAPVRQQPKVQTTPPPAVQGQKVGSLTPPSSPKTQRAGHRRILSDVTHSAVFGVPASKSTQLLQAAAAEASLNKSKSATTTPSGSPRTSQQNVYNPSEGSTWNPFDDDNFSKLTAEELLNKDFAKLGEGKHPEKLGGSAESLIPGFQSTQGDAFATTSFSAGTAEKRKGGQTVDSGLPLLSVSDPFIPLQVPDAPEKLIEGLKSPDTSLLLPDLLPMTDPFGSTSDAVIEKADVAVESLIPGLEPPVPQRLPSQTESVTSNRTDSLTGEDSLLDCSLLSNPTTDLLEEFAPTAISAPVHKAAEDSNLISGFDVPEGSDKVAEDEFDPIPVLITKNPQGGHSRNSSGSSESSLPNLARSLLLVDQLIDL

[19] = molecular target: Mitogen-activated protein kinase 8 (Homo sapiens) (UniProt P45983); settings: Compound concentration 1000.0 nM
[20] = molecular target: Serine/threonine-protein kinase 4 (Homo sapiens) (UniProt Q13043); settings: Compound concentration 1000.0 nM
[21] = molecular target: Serine/threonine-protein kinase 17A (Homo sapiens) (UniProt Q9UEE5); settings: Compound concentration 1000.0 nM
[22] = molecular target: Activin receptor type-2A (Homo sapiens) (UniProt P27037); settings: Compound concentration 1000.0 nM
[23] = molecular target: Interferon-induced, double-stranded RNA-activated protein kinase (Homo sapiens) (UniProt P19525); settings: Compound concentration 1000.0 nM
[24] = molecular target: Dual specificity mitogen-activated protein kinase kinase 3 (Homo sapiens) (UniProt P46734); settings: Compound concentration 1000.0 nM
[25] = molecular target: Serine/threonine-protein kinase SIK2 (Homo sapiens) (UniProt Q9H0K1); settings: Compound concentration 1000.0 nM
[26] = test system: Receptor-type tyrosine-protein kinase FLT3 (Homo sapiens), P36888 [UNDEFINED MUTATION]; settings: Compound concentration 1000.0 nM
[27] = molecular target: Protein kinase C eta type (Homo sapiens) (UniProt P24723); settings: Compound concentration 1000.0 nM
[28] = molecular target: Rhodopsin kinase GRK1 (Homo sapiens) (UniProt Q15835); settings: Compound concentration 1000.0 nM
[29] = molecular target: Cyclin-dependent kinase 4 (Homo sapiens) (UniProt P11802); settings: Compound concentration 1000.0 nM
[30] = molecular target: Mitogen-activated protein kinase kinase kinase 14 (Homo sapiens) (UniProt Q99558); settings: Compound concentration 1000.0 nM
[31] = molecular target: Serine/threonine-protein kinase STK11 (Homo sapiens) (UniProt Q15831); settings: Compound concentration 1000.0 nM
[32] = molecular target: Focal adhesion kinase 1 (Homo sapiens) (UniProt Q05397); settings: Compound concentration 1000.0 nM
[33] = molecular target: Mitogen-activated protein kinase kinase kinase 2 (Homo sapiens) (UniProt Q9Y2U5); settings: Compound concentration 1000.0 nM
[34] = molecular target: Myosin-IIIb (Homo sapiens) (UniProt Q8WXR4); settings: Compound concentration 1000.0 nM
Chain of Myosin-IIIb (Homo sapiens) (Q8WXR4 whole entry): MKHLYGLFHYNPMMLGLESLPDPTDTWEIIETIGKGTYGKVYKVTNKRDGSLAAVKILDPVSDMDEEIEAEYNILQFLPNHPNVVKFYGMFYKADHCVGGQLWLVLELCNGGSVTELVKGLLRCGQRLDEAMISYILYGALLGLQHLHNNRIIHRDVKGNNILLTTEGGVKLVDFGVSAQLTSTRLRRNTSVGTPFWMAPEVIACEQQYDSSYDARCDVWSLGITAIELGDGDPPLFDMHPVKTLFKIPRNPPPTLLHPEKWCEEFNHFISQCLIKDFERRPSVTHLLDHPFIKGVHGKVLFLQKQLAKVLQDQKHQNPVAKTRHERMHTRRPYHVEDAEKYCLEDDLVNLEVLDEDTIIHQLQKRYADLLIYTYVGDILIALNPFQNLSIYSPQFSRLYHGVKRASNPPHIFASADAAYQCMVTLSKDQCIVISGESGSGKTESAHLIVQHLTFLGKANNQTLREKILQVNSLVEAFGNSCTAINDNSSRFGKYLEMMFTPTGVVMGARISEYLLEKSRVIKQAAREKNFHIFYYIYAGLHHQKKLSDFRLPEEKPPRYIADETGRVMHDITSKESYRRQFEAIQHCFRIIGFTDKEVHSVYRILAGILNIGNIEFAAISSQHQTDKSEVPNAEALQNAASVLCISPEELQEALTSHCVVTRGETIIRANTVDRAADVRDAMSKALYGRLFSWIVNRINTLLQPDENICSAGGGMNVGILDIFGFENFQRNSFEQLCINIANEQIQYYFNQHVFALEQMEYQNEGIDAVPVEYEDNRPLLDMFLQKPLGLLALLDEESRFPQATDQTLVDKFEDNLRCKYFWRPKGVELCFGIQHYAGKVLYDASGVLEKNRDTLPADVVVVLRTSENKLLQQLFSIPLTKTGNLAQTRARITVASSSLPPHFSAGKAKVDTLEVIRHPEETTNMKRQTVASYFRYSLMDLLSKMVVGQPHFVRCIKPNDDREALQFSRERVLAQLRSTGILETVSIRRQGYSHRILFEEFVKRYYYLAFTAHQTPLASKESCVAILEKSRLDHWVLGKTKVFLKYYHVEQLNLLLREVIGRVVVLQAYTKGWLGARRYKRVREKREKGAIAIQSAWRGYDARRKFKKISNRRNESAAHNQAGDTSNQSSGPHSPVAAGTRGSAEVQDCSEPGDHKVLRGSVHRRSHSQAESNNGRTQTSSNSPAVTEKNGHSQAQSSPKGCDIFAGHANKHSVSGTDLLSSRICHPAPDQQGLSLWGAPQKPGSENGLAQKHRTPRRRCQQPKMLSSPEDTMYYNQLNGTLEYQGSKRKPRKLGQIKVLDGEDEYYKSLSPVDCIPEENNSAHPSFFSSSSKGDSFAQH

[35] = test system: Mast/stem cell growth factor receptor Kit (Homo sapiens), P10721 [V559D,V654A]; settings: Compound concentration 1000.0 nM
[36] = molecular target: MAP kinase-activated protein kinase 5 (Homo sapiens) (UniProt Q8IW41); settings: Compound concentration 1000.0 nM
[37] = molecular target: Tyrosine-protein kinase Blk (Homo sapiens) (UniProt P51451); settings: Compound concentration 1000.0 nM
[38] = molecular target: Homeodomain-interacting protein kinase 4 (Homo sapiens) (UniProt Q8NE63); settings: Compound concentration 1000.0 nM
[39] = molecular target: Cyclin-dependent kinase 9 (Homo sapiens) (UniProt P50750); settings: Compound concentration 1000.0 nM
Chain of Cyclin-dependent kinase 9 (Homo sapiens) (P50750 whole entry): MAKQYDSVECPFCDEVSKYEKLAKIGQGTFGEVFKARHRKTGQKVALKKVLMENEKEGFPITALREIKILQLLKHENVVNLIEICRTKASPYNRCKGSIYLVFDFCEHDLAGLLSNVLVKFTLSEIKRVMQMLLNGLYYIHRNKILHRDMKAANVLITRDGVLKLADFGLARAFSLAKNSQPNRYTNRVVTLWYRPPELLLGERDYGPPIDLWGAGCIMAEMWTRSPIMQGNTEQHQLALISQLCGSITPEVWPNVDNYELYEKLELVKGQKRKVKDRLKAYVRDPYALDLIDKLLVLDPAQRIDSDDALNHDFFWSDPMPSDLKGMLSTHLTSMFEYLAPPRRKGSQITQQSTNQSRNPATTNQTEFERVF

[40] = molecular target: Dual serine/threonine and tyrosine protein kinase (Homo sapiens) (UniProt Q6XUX3); settings: Compound concentration 1000.0 nM
[41] = molecular target: Mitogen-activated protein kinase 9 (Homo sapiens) (UniProt P45984); settings: Compound concentration 1000.0 nM
[42] = molecular target: D(3) dopamine receptor (Homo sapiens) (UniProt P35462); settings: Compound concentration 10.0 uM
[43] = molecular target: Mitogen-activated protein kinase 12 (Homo sapiens) (UniProt P53778); settings: Compound concentration 1000.0 nM
[44] = molecular target: Dual specificity tyrosine-phosphorylation-regulated kinase 2 (Homo sapiens) (UniProt Q92630); settings: Compound concentration 1000.0 nM
Chain of Dual specificity tyrosine-phosphorylation-regulated kinase 2 (Homo sapiens) (Q92630 whole entry): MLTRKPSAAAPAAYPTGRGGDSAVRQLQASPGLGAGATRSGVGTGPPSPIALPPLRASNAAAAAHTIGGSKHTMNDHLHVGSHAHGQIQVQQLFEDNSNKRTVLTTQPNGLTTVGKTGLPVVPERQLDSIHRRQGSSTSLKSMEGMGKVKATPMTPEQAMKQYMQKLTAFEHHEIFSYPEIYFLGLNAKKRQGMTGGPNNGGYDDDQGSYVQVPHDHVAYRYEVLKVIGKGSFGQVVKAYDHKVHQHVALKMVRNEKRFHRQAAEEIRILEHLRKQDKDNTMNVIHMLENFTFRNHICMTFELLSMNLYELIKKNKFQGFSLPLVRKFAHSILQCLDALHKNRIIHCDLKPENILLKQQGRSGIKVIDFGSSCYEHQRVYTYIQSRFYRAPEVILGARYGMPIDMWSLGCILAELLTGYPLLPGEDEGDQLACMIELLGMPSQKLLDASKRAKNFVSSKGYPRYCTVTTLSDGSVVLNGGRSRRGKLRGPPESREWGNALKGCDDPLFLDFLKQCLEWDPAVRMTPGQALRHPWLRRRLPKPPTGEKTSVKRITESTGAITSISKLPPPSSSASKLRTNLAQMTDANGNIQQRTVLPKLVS

[45] = molecular target: Beta-adrenergic receptor kinase 1 (Homo sapiens) (UniProt P25098); settings: Compound concentration 1000.0 nM

Compound: CCCCN(CCCC)C(=O)CN1C[C@@H](c2cc(OC)c3c(c2)OCO3)[C@H](C(=O)O)[C@H]1CC(C)(C)CCC [A-545]
- residual activity [1]: 94.9%
- residual activity [2]: 100%
- residual activity [3]: 100%
- residual activity [4]: 100%
- residual activity [5]: 74.8%
- residual activity [6]: 100%
- residual activity [7]: 95.8%
- inhibition [8]: -7.99%
- residual activity [9]: 90.6%
- residual activity [10]: 100%
- residual activity [11]: 100%
- residual activity [12]: 100%
- residual activity [13]: 100%
- residual activity [14]: 100%
- residual activity [15]: 98.7%
- residual activity [16]: 96.3%
- inhibition [17]: 23%
- residual activity [18]: 100%
- residual activity [19]: 92.1%
- residual activity [20]: 94.4%
- residual activity [21]: 100%
- residual activity [22]: 85.1%
- residual activity [23]: 100%
- residual activity [24]: 89.5%
- residual activity [25]: 100%
- residual activity [26]: 100%
- residual activity [27]: 0%
- residual activity [28]: 100%
- residual activity [29]: 92.7%
- residual activity [30]: 100%
- residual activity [31]: 82.2%
- residual activity [32]: 100%
- residual activity [33]: 84.6%
- residual activity [34]: 91%
- residual activity [35]: 100%
- residual activity [36]: 100%
- residual activity [37]: 100%
- residual activity [38]: 100%
- residual activity [39]: 100%
- residual activity [40]: 99.7%
- residual activity [41]: 100%
- inhibition [42]: 16.6%
- residual activity [43]: 100%
- residual activity [44]: 82.9%
- residual activity [45]: 97.8%

Compound: CCCCN(CCCC)C(=O)CN1C[C@H](c2cc(OC)c3c(c2)OCO3)[C@@H](C(=O)O)[C@@H]1CC(C)(C)CCC [ABT-546]
- residual activity [1]: 92.3%
- residual activity [2]: 100%
- residual activity [3]: 100%
- residual activity [4]: 57.4%
- residual activity [5]: 60.5%
- residual activity [6]: 100%
- residual activity [7]: 100%
- inhibition [8]: 15.3%
- residual activity [9]: 69.6%
- residual activity [10]: 100%
- residual activity [11]: 100%
- residual activity [12]: 96.1%
- residual activity [13]: 100%
- residual activity [14]: 100%
- residual activity [15]: 49.9%
- residual activity [16]: 100%
- inhibition [17]: -0.591%
- residual activity [18]: 100%
- residual activity [19]: 100%
- residual activity [20]: 100%
- residual activity [21]: 100%
- residual activity [22]: 97.4%
- residual activity [23]: 100%
- residual activity [24]: 57.5%
- residual activity [25]: 100%
- residual activity [26]: 100%
- residual activity [27]: 100%
- residual activity [28]: 71.9%
- residual activity [29]: 100%
- residual activity [30]: 100%
- residual activity [31]: 100%
- residual activity [32]: 100%
- residual activity [33]: 81.2%
- residual activity [34]: 88.6%
- residual activity [35]: 100%
- residual activity [36]: 67.9%
- residual activity [37]: 95.8%
- residual activity [38]: 100%
- residual activity [39]: 100%
- residual activity [40]: 68.6%
- residual activity [41]: 100%
- inhibition [42]: 17.3%
- residual activity [43]: 100%
- residual activity [44]: 71.4%
- residual activity [45]: 71.8%
